Reference: US20250262190A1, “USE OF LAT1 INHIBITORS TO TREAT OBESITY” (Georgetown University, priority 2022, published 2025)

What was measured:
HFD-fed mice [1] = experiment: Glucose homeostasis and intraperitoneal glucose tolerance testing in HFD-fed mice; format: in vivo
Description: [data shown as mean±SEM and significance was determined by one-way ANOVA (for analysis shown in Panels A, B, C, D, and G) or multiple unpaired t-test (for analysis shown in Panel F); *P<0.05, **P<0.01, ***P<0.001.]
(§1) A study was conducted to determine if inhibiting Slc7a5 prevents the metabolic response of adipocyte to excess […] intake and obesity. Mice fed with HFD for 3 months were then injected intraperitoneally with either (a) JPH203, a potent Slc7a5 inhibitor, at a dose of 25 mg/kg, or (b) PBS (vehicle) as control, for 15 consecutive days while on HFD (Days 1-15). Mice fed with a normal diet and receiving no injection were included as a comparator.
Mice that were obese due to HFD were hyperglycemic and hyperinsulinemia regardless of fed or fasting status (see FIG. 9, Panels A-D).

HFD-fed mice [2] = experiment: Toxicity of JPH203 treatment in HFD-fed mice (liver and kidney function, activity, organ mass, whole blood counts); format: in vivo; settings: 25 mg/kg intraperitoneally
Description: as §1
In addition, liver function (AST, ALT), kidney function (creatinine), and effect on bone marrow and immune response (whole blood counts) were tested to examine the toxicity of the pharmacological JPH203 treatment. […] Also, there was no effect of JPH203 treatment on liver, heart, or kidney weight (see FIG. 3, Panel E).

[3] = tested on: adipose tissues of HFD-fed mice; experiment: Nile red and Mitotracker staining of adipose tissues of HFD-fed mice; format: in vivo
Description: [“Epi fat”=epididymal white adipose tissue; “SubQ”=inguinal white adipose tissue; “iBAT”=interscapular brown adipose tissue; data shown as mean±standard error (SE) and significance was determined by one-way ANOVA or unpaired two-tailed t-test; *P<0.05, **P<0.01.]
as §1

[4] = tested on: differentiated adipocytes 3T3L1 co-cultured with macrophage (RAW 264.7 cells); experiment: Adipogenesis in co-culture of adipocyte 3T3L1 and macrophage RAW 264.7 cells; format: cell-based
Description: [Data shown as mean±SE and significance was determined by two-way ANOVA (for analysis shown in Panel B) and unpaired two-tailed t-test (for analysis shown in Panels D-G; *P<0.05, ***P<0.001, ****P<0.0001.]
A study was conducted to determine which aspects of the adipocyte lineage was affected by inhibition of Slc7a5. To this end, pre-adipocytes or differentiated adipocytes 3T3L1 were co-cultured in the presence of macrophage (RAW 264.7 cells). The experimental design is illustrated in FIG. 10, Panel A.
The study examined expression of PPARγ and mTOR, and Nile red stained lipid droplets, which are indicators of adipogenesis and are shown to increase in differentiated adipocytes compared to preadipocytes.

HFD-fed mice [5] = experiment: Body weight, fat mass and food intake in HFD-fed mice injected with JPH203; format: in vivo; settings: 25 mg/kg intraperitoneally
Description: as §1

[6] = tested on: epididymal white adipose tissue of HFD-fed mice; experiment: Gene expression (mRNA) in epididymal white adipose tissue of HFD-fed mice; format: in vivo
Description: as §1
To determine if JPH203 affected adipose tissue function, the epididymal and inguinal white adipose tissues were dissected and analyzed 15 days after treatment.

HFD-fed mice [7] = experiment: Serum levels of adipokine and cytokines by ELISA in HFD-fed mice; format: in vivo; settings: 25 mg/kg intraperitoneally, 15 days, vs control HFD-fed mice
Description: Panels A-G show serum levels of leptin, insulin like growth factor 1 (IGF1), monocyte chemoattractant protein-1 (MCP1), vascular endothelial growth factor (VEGF), interleukin 1 alpha (ILla), interleukin 1 beta (IL1β), interleukin 6, and tumor necrosis factor alpha (TNFa), respectively, in normal diet-fed mice, HFD-fed mice injected with JPH203, and control HFD-fed mice. [“AU”=arbitrary unit; data shown as mean±SEM and significance was determined by one-way analysis of variance (ANOVA) or unpaired two-tailed t-test; *P<0.05, **P<0.01; ***P<0.001, ****P<0.0001.]
as §1
Obesity is correlated with chronically high levels of several cytokines which produced primarily by adipose tissues, which play a role in chronic inflammatory states.

[8] = HFD-fed mice injected with JPH203
[9] = HFD-fed mice injected with JPH203 vs control HFD-fed mice
[10] = epididymal and inguinal white adipose tissues, vs control HFD-fed mice
[11] = co-culture of 3T3L1 and RAW 264.7 cells
[12] = fully differentiated adipocytes as compared to the preadipocytes, in the presence of macrophages
[13] = epididymal adipose tissues, vs control HFD-fed mice
[14] = epididymal white adipose tissue, 15 days after treatment
[15] = epididymal white adipose tissue, 15 days after treatment, vs control HFD-fed mice

## Nc1cc(COc2c(Cl)cc(C[C@H](N)C(=O)O)cc2Cl)c2oc(-c3ccccc3)nc2c1 [JPH203, (S)-2-Amino-3-(4-((5-amino-2-phenylbenzo[d]oxazol-7-yl)methoxy)-3,5-dichlorophenyl)propanoic acid]
HFD-fed mice [1]; [8]
  reduction in blood glucose concentration after glucose administration (IPGTT): significantly faster reduction
HFD-fed mice [1]; HFD-fed mice injected with JPH203 compared with control HFD-fed mice
  correlation of weight loss with decreased baseline glucose: positively correlated
HFD-fed mice [1]; [9]
  fasting glucose: lower
  fed glucose: lower
  glucose tolerance: improved
HFD-fed mice [2]; 15 days
  Creatine levels (kidney function): in the normal ranges
  complete blood counts (CBC): effect on bone marrow and immune response: no significant effect
  mice activity (running wheel experiment): does not decrease mice activity
HFD-fed mice [2]; 15 days, normal is 13-35 IU/L
  AST serum level: in the normal range
HFD-fed mice [2]; 15 days, normal is 37-88 IU/L
  ALT serum level: in the normal range
HFD-fed mice [2]; 15 days, vs control HFD-fed mice
  Creatine levels compared with control HFD-fed mice: significantly less
HFD-fed mice [2]; day 15
  liver, heart, or kidney weight: no effect
[3]; [8]
  mitochondrial biogenesis in interscapular brown adipose tissues (Mitotracker staining): significantly increased
[3]; [10]
  adipocyte lipid content (Nile red staining): lower lipid content
  adipocyte size (Nile red staining): smaller sized adipocytes
[4]; [11]
  adipocyte differentiation: decreased
  cell survival / cell death: does not affect cell survival
  lipid droplets (Nile red stained): reduction
[4]; [12]
  PPARγ expression: reduced
  mTOR expression: reduced
HFD-fed mice [5]; at 15 days
  mass of interscapular brown adipose tissue and epididymal and inguinal white adipose tissue, normal fed mice compared to HFD-fed mice injected with JPH203: not significantly less
HFD-fed mice [5]; HFD-fed mice, after 15 days, vs HFD-fed mice injected with vehicle (PBS)
  body weight: significant weight reduction
HFD-fed mice [5]; HFD-fed mice, at 15 days, vs control HFD-fed mice
  mass of epididymal white adipose tissue: significantly less
HFD-fed mice [5]; HFD-fed mice, over 15 days
  appetite suppression (food and water consumption) as contributor to weight loss: not a major contributing factor
[6]; [13]
  genes related to anti-adipogenic factor: upregulated
  genes related to energy dissipation/fatty acid β oxidation: upregulated
  genes related to fatty acid uptake: upregulated
  genes related to glucose uptake/glycolysis: downregulated
  genes related to glyceroneogenesis/fatty acid synthesis: downregulated
  genes related to lipogenesis: downregulated
  genes related to lipolysis: downregulated
  genes related to pentose phosphate pathway (NADPH production): downregulated
[6]; [14]
  Hif2α expression (downstream target of mTOR signaling): decreased
  Slc7a5 expression: did not change
  anti-inflammatory arginase 1 (Arg1) gene expression: increased
  proinflammatory nitric oxide synthase 2 (Nos2/Inos) gene expression: reduced
[6]; [15]
  mRNA levels for beiging and browning markers: increased
  mRNA levels for general adipogenic markers: decreased
  mRNA levels for white adipogenic markers: decreased
HFD-fed mice [7]
  serum level of IGF1: decreased
  serum level of IL1α: decreased
  serum level of IL1β: decreased
  serum level of IL6: increased
  serum level of MCP1: decreased
  serum level of TNFα: decreased
  serum level of VEGF: decreased
  serum level of leptin: decreased
